Results taken from patent publication US8592394B2, “Synthetic derivatives beta glycolipids and compositions thereof for the treatment of pathologic disorders” (Enzo Therapeutics, Inc., priority 2003, dated 2013).

Legend:
B6 splenocytes = experiment: In vitro stimulation of splenocytes: [3H] thymidine incorporation (proliferation); format: cell-based, mouse; details: 72-h cultures, graded amounts
Experimental: (§1) Splenocytes were prepared as described above and plated at 2.0×10^5 cells per well in 96-well plates in RPMI-1640 supplemented with 5% FCS, […] 2-mercaptoethanol, 2 mM glutamine, 1% sodium pyruvate, and antibiotics. Titrated volumes of GC, α-GalCer, and ALIB-97 diluted in DMSO were added at final concentrations of 100 ng, 1 μg, and 10 μg/ml. After 72 h of culture, 1 μCi of [^3H] thymidine (Amersham Biosciences) was added to each well, and the cells were cultured for an additional 16 to 18 h. Cells were harvested with a cell harvester (Tomtec, Orange, Conn.), and the uptake of radioactivity was measured with a β-plate reader. To evaluate IFN-γ secretion in vitro, supernatants were harvested after 90 h of culture with glycolipids and stored until the cytokine levels were measured by ELISA.

liver = details: mice, cited from earlier work
mouse splenocytes = experiment: In vitro stimulation of splenocytes: supernatant IFN-γ by ELISA; format: cell-based; details: CD1d−/− splenocytes
Experimental: as §1

ob/ob mice [1] = experiment: Serum ALT and AST (hepatic injury) in ob/ob mice; format: in vivo; details: day 30, 45 μg per os daily, vehicle group A 710
Experimental: The effect of β-glycolipids on liver injury was evaluated by serum aspartyl transaminase (AST) and alanine aminotransferase (ALT) activities, which were determined by a clinical chemistry analyzer, Reflovet Plus (Roche Diagnostics, GmbH, Mannheim, Germany).
(§2) Therefore, five groups of male C57BL/6 Ob/Ob mice were studied. Mice (6 per group) were fed (per os) daily for 4 weeks with 15 or 45 μg of GC (groups B and C, respectively) and 15 or 45 μg of ALIB-97 (groups D and E, respectively). Control mice (Group A) were administered vehicle only.

fat-associated T cells = experiment: Flow cytometry of T cell subsets in adipose tissue, stromal vascular cells and spleen of ob/ob mice; format: in vivo; details: 15 and 45 μg per os daily 4 weeks
Experimental: Splenocytes and intrahepatic lymphocytes were isolated as follows: livers and spleens were kept in RPMI-1640+FCS. Then spleens were crushed through a 70 μm nylon cell strainer (Falcon) and centrifuged (1250 rpm for 7 min) for the removal of cell debris. Red blood cells were lysed with 1 ml of cold 155 mM ammonium chloride lysis buffer and centrifuged (1250 rpm for 3 min). Splenocytes were resuspended with 1 ml RPMI+FCS. Cell viability by trypan blue staining was above 90%. For intrahepatic lymphocytes, livers were crushed through a stainless mesh (size 60, Sigma) and the cell suspension was placed in a 50-ml tube for 5 min. Lymphoprep (10 ml, Ficoll, Axis-Shield PoC AS, Oslo, Norway) was placed under similar volume of cell suspension in 50-ml tubes. Tubes were centrifuged at 1800 rpm for 18 min. Cells in the interface were collected and centrifuged at 1800 rpm for 10 min, to obtain a pellet of cells depleted of hepatocytes to a final volume of 250 μl. Approximately 1×10^6 cells/mouse liver, were recovered.
Adipose tissue (visceral fat pads) was minced and incubated in Krebs-Ringer bicarbonate buffer (3 mL/g adipose tissue) containing 10mM glucose and 2.5% bovine serum albumin, incubated with 840 U/g collagenase type I (Sigma, Rehovot, Israel)) at 37° C. for 1 hour. Cells were filtered twice through chiffon mesh (100 μm) and centrifuged 50 g for 5 min. Floating adipocytes were separated from pelleted S/V fraction. The infranatant fraction was removed and centrifuged at 200 g for five minutes to pellet the S/V cells.
For metabolic syndrome experiments, the following antibodies were used for flow cytometry: anti-CD4-Pacific Blue, anti-CD8-FITC, anti-IL-17-PE, anti CD25-PercP-Cy5.5 and anti FOX3p PE-Cy725 (all from eBioscience, San Diego, Calif.). Surface staining was performed by incubating cells with antibodies and anti-CD16/32 (blocks Fc, eBioscience) at 4° C. in FACS buffer containing PBS and 0.5% BSA, for 30 min. Cells were washed twice with FACS buffer, resuspended in FACS buffer, and analyzed by flow cytometry. Appropriate isotype controls were used in all experiments. Intracellular staining was performed using Foxp3 staining buffer kit (eBioscience, San Diego, Calif.). Cells were incubated with 1 ml Fixation/Permeabilization solution for 50 min, washed twice with Permeabilization buffer and incubated with anti-Foxp3 Ab for 50 min. Cells were then washed twice with Permeabilization buffer and resuspended with FACS buffer. Analysis was performed using a FACSCalibur instrument (Becton Dickinson, San Jose, Calif.) with FCS express V.3 software (DeNovo software, Los Angeles, Calif.).
as §2

AKT = experiment: Western blot of liver extracts of ob/ob mice: AKT activation; format: in vivo; details: per os daily 4 weeks, 45 μg (group C)
Experimental: (§3) For analysis of whole tissue lysates, snap-frozen liver pieces were homogenized in 0.75 ml of ice-cold PBS and centrifuged at 4° C. for 5 min in 2000 rpm. Pellets were lysed with 50 mM beta glycerophosphate, 1.5 mM EGTA, PH 7.3, 1 mM EDTA, PH 7.3, 1 mM DTT, 0.1 mM Sodium vanadate, 1% NP-40, and cocktails of protease and phosphatase (Sigma, Rehovot, Israel).
(§4) Lysates were centrifuged twice at 4° C. for 10 minutes in 14000 rpm. Equivalent amounts of lysates (15 μg/lane), determined by Bradford assay (Bio-Rad, Rehovot, Israel), were separated by sodium dodecyl sulfate polyacrylamide gel electrophoresis (SDS-PAGE) and transferred to nitrocellulose membranes.
(§5) For metabolic syndrome experiments, proteins were detected with JNK-2, Phospho JNK (Thr183/Tyr185), Akt and phospho Akt (Ser 473) antibodies (Cell Signaling Technologies, MA). β-actin (abcam, UK) was used as the loading control.
(§6) Blots were developed with horseradish peroxidase-conjugated secondary antibodies (Jackson Laboratories Bar Harbor, Me.) and Western Blot-Luminol Reagent (Santa Cruz Biotechnology, CA, USA). Cell counting and western Blot quantification was performed using total Lab (Phoretix, USA) software.
(§7) Therefore, five groups of male C57BL/6 Ob/Ob mice were studied. […]

JNK2 = experiment: Western blot of liver extracts of ob/ob mice: JNK2 activation; format: in vivo; details: per os daily 4 weeks, 45 μg (group C)
Experimental: as §3, §4, §5, §6, §7

ob/ob mice [2] = experiment: Fasting glucose and glucose tolerance test in ob/ob mice; format: in vivo
Experimental: Mice underwent a glucose tolerance test (GTT) on day 30 after overnight fasting. Glucose was administered orally (1.25 g per kg). Serum glucose measurements were performed on tail-vein blood every 15 min for 3 h. Glucose levels were measured by a standard glucometer.
as §2

[3] = humans, preliminary data; cited from earlier work

Row | Compound | cell proliferation ([3H] thymidine incorporation) (B6 splenocytes) | hepatotoxicity (liver) | liver injury (liver; oral administration) | IFN-γ secretion (mouse splenocytes) | serum AST (ob/ob mice [1]) [u/L] | CD4+IL17+ / CD4+CD25+ ratio in adipose tissue (fat-associated T cells) | CD4IL17/CD4CD25FOXP3 ratio in the SVC (fat-associated T cells) | CD4IL17/CD4CD25FOXP3 ratio in the spleen (fat-associated T cells) | CD4IL17/CD4CD25 ratio in the spleen (fat-associated T cells) | ratio between CD4+IL17+ and CD4+CD25+FOXP3+ cells in adipose tissue (fat-associated T cells) | increase of AKT activation (AKT) [%] | activation of JNK2 (JNK2) [%] | time at which the decrease in glucose levels (GTT, relative to time 0) reached statistical significance (ob/ob mice [2]; day 30, 15 μg per os daily) [min] | time at which the decrease in glucose levels (GTT, relative to time 0) reached statistical significance (ob/ob mice [2]; day 30, 45 μg per os daily) [min] | safety and biological activity [3]
1 | CCCCCCCCCCCCCCCCCCCCCCCCCC(=O)N[C@@H](CO[C@H]1O[C@H](CO)[C@H](O)[C@H](O)[C@H]1O)[C@H](O)[C@H](O)CCCCCCCCCCCCCC [αGalCer, α-Galctosyl-ceramide] | induced | hepatotoxic | – | – | – | – | – | – | – | – | – | – | – | – | –
2 | β-glucosylceramide [GC, reference compound] | – | – | not associated with liver injury | capable of activating | 330 | reversal | reduction | reduction | reduction | dose dependent shift towards tolerance | 43 | 60 | 120 | 120 | safe and biologically active
